Six compounds from patent publication US20100179158A1, “INHIBITORS OF CYCLIC AMP PHOSPHODIESTERASES” (priority 2007, published 2010) can be followed below.

For one test, the target named is T1, PDE7A (Homo sapiens, UniProt Q13946).
T1 construct: targets used in the assays are full-length proteins (as opposed to simply the catalytic domain); expressed in transfected cells; host or cells: Schizosaccharomyces pombe, gene integrated at the cgs2 locus
In words: Fission yeast 5FOA growth assay, strain expressing PDE7A. It counts as cell-based. The note with it: 5FOA growth screen; for 1 Assay (20 uM), PDE 7A: 20 uM compound; for 2 Assay (2 uM), PDE 7A: 2 uM compound. On the procedure:
(§1) Cells were pregrown in EMM medium [MP Biomedicals (Solon, OH), 3% glucose, filter-sterilized to avoid carmelization, which would introduce variability into the optical density of the medium] containing from 0 mM to 2.5 mM cAMP (or either 0.5 mM or 1.0 mM cGMP). This was to repress expression of the fbp1-ura4 reporter prior to exposure of cells to 5FOA medium. Cells were grown at 30° C. to exponential phase (approximately 10^7 cells/ml). Cells were collected by centrifugation and resuspended in 5FOA medium, and 25 μl were transferred to 384-well microtiter dishes (untreated, with flat clear bottoms) that had been pre-filled with 25 μl 5FOA medium and pre-pinned with 100 nl of compounds (stock solutions were generally 10 mM). Starting cell concentrations ranged from 0.5×10^5 to 4×10^5 cells/ml depending on the screening strain. […] Other positive control dishes contained 5 mM cAMP in the 5FOA medium for PDEs that lack appropriate control compounds. Cultures were grown for 48 hours at 30° C., sealed in an airtight container with moist paper towels to prevent evaporation. Optical densities (OD600) of cultures were measured using a microplate reader. Bioinformatic analysis of the results to determine composite Z scores was performed as previously described (1, 3).

A further test deals with T2, PDE4A5 (Rattus norvegicus, UniProt P54748).
T2 construct: targets used in the assays are full-length proteins (as opposed to simply the catalytic domain); expressed in transfected cells; host or cells: Schizosaccharomyces pombe, gene integrated at the cgs2 locus
T2 sequence (P54748 1-844): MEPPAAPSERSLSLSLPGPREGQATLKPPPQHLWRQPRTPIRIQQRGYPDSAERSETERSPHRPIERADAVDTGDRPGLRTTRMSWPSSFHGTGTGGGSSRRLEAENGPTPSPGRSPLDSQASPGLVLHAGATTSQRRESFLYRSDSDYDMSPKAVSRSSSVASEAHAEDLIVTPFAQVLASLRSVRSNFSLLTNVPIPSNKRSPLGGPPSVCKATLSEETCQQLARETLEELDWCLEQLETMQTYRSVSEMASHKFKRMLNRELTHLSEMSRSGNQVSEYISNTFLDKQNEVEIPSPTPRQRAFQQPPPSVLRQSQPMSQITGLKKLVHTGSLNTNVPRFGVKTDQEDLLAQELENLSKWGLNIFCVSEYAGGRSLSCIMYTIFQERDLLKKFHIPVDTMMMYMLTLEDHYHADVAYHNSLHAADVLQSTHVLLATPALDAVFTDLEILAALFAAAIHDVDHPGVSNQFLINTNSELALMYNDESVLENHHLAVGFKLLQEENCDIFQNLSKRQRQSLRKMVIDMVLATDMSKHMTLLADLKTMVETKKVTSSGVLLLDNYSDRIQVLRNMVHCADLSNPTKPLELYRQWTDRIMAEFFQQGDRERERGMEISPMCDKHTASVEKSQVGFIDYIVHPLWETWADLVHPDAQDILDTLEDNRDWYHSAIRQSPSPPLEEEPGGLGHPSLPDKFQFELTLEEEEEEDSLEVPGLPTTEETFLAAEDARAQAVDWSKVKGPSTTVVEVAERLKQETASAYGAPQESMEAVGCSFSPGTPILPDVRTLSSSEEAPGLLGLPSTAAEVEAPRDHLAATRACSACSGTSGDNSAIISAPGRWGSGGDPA
In words: Fission yeast 5FOA growth assay, strain expressing PDE4A5. It counts as cell-based. The note with it: 5FOA growth screen; for 1 Assay (20 uM), PDE 4A5: 20 uM compound; for 2 Assay (2 uM), PDE 4A5: 2 uM compound. On the procedure: High throughput drug screens were carried out at the Broad Institute's Chemical Biology Program screening facility (Broad Institute, Cambridge, Mass.). Depending upon the strain, cultures were pregrown to exponential phase in EMM complete medium containing from 0.5 to 2.5 mM cAMP to repress fbp1-ura4 transcription. Cells were collected by centrifugation, resuspended in 5FOA medium, and 25 μl were transferred to 384-well microtiter dishes (untreated, with flat clear bottoms) that had been pre-filled with 25 μl 5FOA medium and pre-pinned with 100 nl of compounds (stock solutions were generally 10 mM) from a subset of the Prestwick Bioactive and the Microsource Spectrum compound libraries. Starting cell concentrations ranged from 0.5×10^5 to 4×10^5 cells/ml depending on the screening strain. […] Other positive control dishes contained 5 mM cAMP in the 5FOA medium. Cultures were grown for 48 hours at 30° C., sealed in an airtight container with moist paper towels to prevent evaporation. Optical densities (OD600) of cultures were measured using a microplate reader. Bioinformatic analysis of the results to determine composite Z scores was performed as previously described^30, 31.
as §1

T1 sequence (Q13946 whole entry, the tested form may be a part): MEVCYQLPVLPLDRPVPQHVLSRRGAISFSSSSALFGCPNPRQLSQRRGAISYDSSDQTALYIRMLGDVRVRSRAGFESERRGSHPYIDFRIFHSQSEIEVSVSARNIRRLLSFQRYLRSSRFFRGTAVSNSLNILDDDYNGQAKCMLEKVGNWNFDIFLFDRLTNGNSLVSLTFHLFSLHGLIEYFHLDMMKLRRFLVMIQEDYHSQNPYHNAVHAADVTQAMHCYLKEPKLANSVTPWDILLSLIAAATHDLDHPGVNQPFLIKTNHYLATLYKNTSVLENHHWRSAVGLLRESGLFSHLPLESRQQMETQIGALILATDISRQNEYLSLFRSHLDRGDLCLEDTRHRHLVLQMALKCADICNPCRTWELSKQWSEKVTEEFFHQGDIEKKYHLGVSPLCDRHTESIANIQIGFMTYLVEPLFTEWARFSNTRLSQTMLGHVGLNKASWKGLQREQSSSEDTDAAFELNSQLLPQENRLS

Consider `Cc1ccc2c(c1)c1nc3ccccc3nc1n2C(C)C` [Compound 41], for which the “1 Assay (20 uM), PDE 7A” value at PDE7A is on record as 0.31. For the same compound, the “1 Assay (20 uM), PDE 4A5” value at PDE4A5 came out at 84.08.

Take `COC(=O)C1=C(C)N(c2ccccc2)/C(=C/c2cccs2)C1=O` [2008, K19]: on PDE7A, the “1 Assay (20 uM), PDE 7A” value was 2.43 ND ND ND ND. The “1 Assay (20 uM), PDE 4A5” value at PDE4A5 is −0.06 ND ND ND ND.

With `COC(=O)C1=C(C)N(C2CCCCC2)C(=O)/C1=C\c1cccs1` [Compound 22], on PDE7A, the “2 Assay (2 uM), PDE 7A” value came out at 57.22 and the “1 Assay (20 uM), PDE 7A” value amounted to 132.82. Further, at PDE4A5, the “2 Assay (2 uM), PDE 4A5” value is recorded as 13.66 and the “1 Assay (20 uM), PDE 4A5” value is listed as −0.06.

For `COC(=O)C1=C(C)N(c2ccc(C(C)C)cc2)C(=O)/C1=C\c1cccs1` [2008, O19], the “1 Assay (20 uM), PDE 7A” value on PDE7A is given as 2.78 ND ND ND ND. On PDE4A5, the “1 Assay (20 uM), PDE 4A5” value came to 1.73 ND ND ND ND.

As for `COC(=O)C1=C(C)N(c2ccccc2F)C(=O)/C1=C\c1cccc(OC)c1O` [2008, C21], at PDE7A, the “1 Assay (20 uM), PDE 7A” value is given as −0.08 ND ND ND ND. Besides, the “1 Assay (20 uM), PDE 4A5” value at PDE4A5 worked out at 1.80 ND ND ND ND.

`COC(=O)C1=C(C)N(c2ccccc2Cl)C(=O)/C1=C\c1cccs1` [Compound 27]: at PDE7A, the “2 Assay (2 uM), PDE 7A” value is 5.07 and the “1 Assay (20 uM), PDE 7A” value was 2.34. Also, at PDE4A5, the “2 Assay (2 uM), PDE 4A5” value worked out at 12.63 and the “1 Assay (20 uM), PDE 4A5” value is on record as 65.67.
